One assay concerns the target agTRPA1(A) (Anopheles gambiae, UniProt B3G3I7). Briefly: Two-electrode voltage clamp of Xenopus oocytes expressing agTRPA1(A). The assay is classed as cell-based. The following applies: for isoform preference of activation: −60 mV, agTRPA1(A) versus agTRPA1(B). On the procedure: (§1) TRPA1-dependent currents in Xenopus laevis oocytes induced by application of chemicals and light illumination were recorded by the two-electrode voltage clamping technique (TEVC), as described previously ([Kang et al., 2010]; [Kang et al., 2012]). Briefly, ovaries were surgically prepared and subjected to digestion with 1.5 mg/ml collagenase for 1.5 hr. Subsequently, the follicular layer of the oocytes was manually removed. One day after microinjection of 50 nl of TrpA1 cRNA, oocytes were electrophysiologically examined while perfused with the recording solution (96 mM NaCl, 1 mM KCl, 1 mM MgCl2, 5 mM HEPES, pH 7.6). For UV illumination, the optical fiber terminal was mounted above the cell at a minimal distance to achieve the highest possible intensity (Figure 1—figure supplement 1c). […] For UV experiments, the initial voltage was −60 mV, and it was then changed in periods of 300 ms from −60 to +60 mV per second. […] The current was amplified with a GeneClamp 500B amplifier (Molecular Devices, CA, USA) and registered by a digitizer (Digidata 1440 A, Molecular Devices, CA, USA). Data from dose-dependence experiments were normalized with respect to 0.1 mM NMM currents recorded from the same cells, and fitted to the Hill equation using Sigmaplot12.

For the next assay, the target named is T1, Drosophila TRPA1(B) (Drosophila melanogaster, UniProt Q7Z020).
T1 construct: expressed in transfected cells; host or cells: Xenopus laevis oocytes injected with TrpA1 cRNA
T1 sequence (Q7Z020 1-1197): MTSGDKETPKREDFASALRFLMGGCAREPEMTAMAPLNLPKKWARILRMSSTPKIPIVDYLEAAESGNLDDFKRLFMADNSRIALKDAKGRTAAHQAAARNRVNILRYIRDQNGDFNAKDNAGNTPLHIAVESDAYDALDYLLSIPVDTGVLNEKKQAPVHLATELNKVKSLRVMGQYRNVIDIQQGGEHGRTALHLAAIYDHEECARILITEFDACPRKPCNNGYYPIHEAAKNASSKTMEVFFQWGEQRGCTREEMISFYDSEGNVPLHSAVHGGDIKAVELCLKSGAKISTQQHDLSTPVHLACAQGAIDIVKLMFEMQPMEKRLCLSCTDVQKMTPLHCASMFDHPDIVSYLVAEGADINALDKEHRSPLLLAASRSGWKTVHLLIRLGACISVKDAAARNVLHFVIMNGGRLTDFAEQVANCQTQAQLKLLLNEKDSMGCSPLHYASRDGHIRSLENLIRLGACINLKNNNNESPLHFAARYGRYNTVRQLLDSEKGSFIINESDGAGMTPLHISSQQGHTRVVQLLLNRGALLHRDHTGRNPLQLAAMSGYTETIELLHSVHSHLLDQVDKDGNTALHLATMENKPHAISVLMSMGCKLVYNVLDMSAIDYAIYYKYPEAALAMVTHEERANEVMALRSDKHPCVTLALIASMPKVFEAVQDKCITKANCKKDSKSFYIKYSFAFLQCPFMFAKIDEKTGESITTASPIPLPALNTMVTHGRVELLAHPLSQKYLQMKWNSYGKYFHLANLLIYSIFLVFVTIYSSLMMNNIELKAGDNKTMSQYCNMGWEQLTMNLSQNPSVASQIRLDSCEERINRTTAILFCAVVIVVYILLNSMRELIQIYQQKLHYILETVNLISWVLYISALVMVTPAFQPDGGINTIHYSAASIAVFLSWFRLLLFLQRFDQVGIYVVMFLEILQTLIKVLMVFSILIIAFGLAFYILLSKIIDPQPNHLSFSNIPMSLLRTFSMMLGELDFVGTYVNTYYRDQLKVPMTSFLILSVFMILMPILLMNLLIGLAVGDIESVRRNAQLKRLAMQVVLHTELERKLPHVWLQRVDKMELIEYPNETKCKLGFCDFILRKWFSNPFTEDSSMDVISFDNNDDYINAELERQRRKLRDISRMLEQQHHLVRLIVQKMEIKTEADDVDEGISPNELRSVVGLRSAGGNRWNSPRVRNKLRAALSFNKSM
Description: Two-electrode voltage clamp of Xenopus oocytes expressing Drosophila TRPA1(B). The assay is classed as cell-based. On the procedure:
as §1

The next assay deals with T2, human TRPA1 (humTRPA1) (Homo sapiens, UniProt O75762).
T2 construct: expressed in transfected cells; host or cells: Xenopus laevis oocytes injected with TrpA1 cRNA
Description: Two-electrode voltage clamp of Xenopus oocytes expressing human TRPA1. The assay is classed as cell-based. The method, then: as §1

Assay [1] deals with bitter-sensing neurons in i-bristles. Description: Extracellular single sensillum recording from labellum i-bristles. In kind it is in vivo, Drosophila melanogaster. As to conditions: for effect of pre-application on UV-evoked action potentials: i-a bristles, applied via the recording electrode, concentrations below those eliciting fast activation. The method, then:
In vivo taste cell recordings were performed as detailed previously ([Kang et al., 2012]). Briefly, bristles were identified based on the previously described sensillum map of the labellum ([Weiss et al., 2011]; [Tanimura et al., 2009]). […] Tricholine citrate (TCC) at 30 mM was used as an electrolyte in the glass recording electrodes. Chemicals were solubilized in the electrolyte solution, and then applied to taste neurons. Spiking frequencies to chemicals were calculated for entire recordings except for H2O2 recording in L bristles, for which spiking frequencies were calcuclated from the first 10 s. […] For the first 20 s of UV response recordings, the basal activity of neurons in the bristle was monitored, after which time UV illumination was administered to the sensilla for 20 s using optical fiber-coupled UV LEDs (FCS-0295–000, Mightex, CA, and UVTOP295, Qphotonics, MI, USA for UVB at 295 nm and M365FP1, Thorlabs, USA for UVA at 365 nm) controlled by an SLA-series two-channel LED driver (SLA-0100–2, Mightex) and a T-Cube LED driver (LEDD1B, Thorlab, USA), respectively. The maximal optical fiber output of 295 nm UV was 0.063 mWusing a ball-lens type LED and that of 365 nm UV was 0.3 mW. These net power outputs at the tip of the optical fiber were measured with a photodiode sensor (S120VC, Thorlabs, NJ, USA) connected to a digital console (PM100D, Thorlabs, NJ, USA). Illumination intensity was calculated by considering the size of illuminated area derived from the numerical aperture (NA) values of the optical fibers and the distance to the samples. Due to the complex shape of fly taste bristles on the labellum and various illumination angles between the light beam and tissue, we simplified the calculation by postulating a 45° angle and oval illumination area at a distance (Figure 1—figure supplement 1d). For oocytes, circular areas were calculated (Figure 1—figure supplement 1e). Blue and green light illumination was accomplished using a GFP or RFP excitation filter (470 or 540 nm with a bandpath of 50, respectively) equipped with a typical fluorescence microscope. The UV filter for experiments with white light consisted of glass deposited with nanolayers of titanium dioxide (custom-made, Seoul Precision Optics, Seoul, Korea). Flies prepared for sensillum recording in response to light were used once to record from a single bristle, in order to test only naïve cells. The reference electrode containing hemolymph-like solution 3.1 (HL3.1) ([Feng et al., 2009]) was inserted close to the labella taste neuron cell bodies from the back of the fly thorax, which held the proboscis in an extended configuration in order to minimize electrical noise stemming from movement of the live animal. Tasteprobe (Syntech, Netherlands) was used as a preamplifier to register the action potentials from the neurons, which were digitized with Powerlab (ADI instruments, Australia). The obtained spiking frequencies were analyzed by Labchart (ADI instruments, Australia). Non-responding bristles were re-tested with other agonists that activate the same neurons as indicated in the main text (Figure 1—figure supplement 2 and Figure 3—figure supplement 1).

The test system of the next assay is TRPA1(A)R113A/R116A. Briefly: Two-electrode voltage clamp of Xenopus oocytes expressing TRPA1(A)R113A/R116A. The assay is classed as cell-based, Drosophila melanogaster. The method, then: as §1
Another assay deals with TRPA1(A)C105A. Briefly: Two-electrode voltage clamp of Xenopus oocytes expressing TRPA1(A)C105A. The assay is classed as cell-based, Drosophila melanogaster. On the procedure: as §1
For a further assay, the system named is agTRPA1(B). Description: Two-electrode voltage clamp of Xenopus oocytes expressing agTRPA1(B). The assay is classed as cell-based, Anopheles gambiae. As to conditions: 0.1 mM APS. On the procedure:
as §1

Another assay concerns mouse TRPA1. The following applies: extracellular Ca2+ required; ref Andersson et al., 2008; cited from earlier work.
For the next assay, the target named is T3, Drosophila TRPA1(A) (Drosophila melanogaster, UniProt Q7Z020).
T3 sequence (Q7Z020 1-1197): T1 sequence (Q7Z020 1-1197)
Briefly: Two-electrode voltage clamp of Xenopus oocytes expressing Drosophila TRPA1(A). In kind it is cell-based. On the procedure: as §1

Another assay has as its system Drosophila (WT: wcs). Briefly: Capillary feeder (Café) assay, feeding avoidance. The assay is classed as in vivo, Drosophila melanogaster. The arrangement: dose or concentration left out as unconfirmed. The following applies: WT flies. The method, then: To quantitatively evaluate the impact of UV irradiation and chemicals on feeding deterrence, the capillary feeder (Café) assay ([Ja et al., 2007]) was used with minor modifications. In particular, feeding avoidance upon UV illumination was determined using two sibling populations of 16 hr starved flies. […] Irradiance was measured as ~1.8, 4, and 57.1 mW/cm^2for UVA, UVB, and white light, respectively, using an excised piece of a vial covering the photodiode probe (S120VC, Thorlabs, NJ, USA) to simulate internal irradiation. The vials were made of polypropylene, which has a low rate of UV transmission ([Kruenate et al., 2004]), resulting in increased internal temperature, as described in Figure 1—figure supplement 3. To minimize thermal accumulation, the UV-illuminated vial was actively cooled by fan-driven air flow while the internal temperature of a separately illuminated vial was concurrently monitored. After each feeding session, the change in the level of the menisci of 30 mM sucrose solutions in three calibrated glass capillary tubes (#2920107, Marienfeld, Lauda-Königshofen, Germany, 15 mm/μl) was measured. Following measurement of the evaporated volume obtained from vials without flies, the distance readings were converted to volume measurements. […]

Sequence of agTRPA1(A) (B3G3I7 entry or part of it): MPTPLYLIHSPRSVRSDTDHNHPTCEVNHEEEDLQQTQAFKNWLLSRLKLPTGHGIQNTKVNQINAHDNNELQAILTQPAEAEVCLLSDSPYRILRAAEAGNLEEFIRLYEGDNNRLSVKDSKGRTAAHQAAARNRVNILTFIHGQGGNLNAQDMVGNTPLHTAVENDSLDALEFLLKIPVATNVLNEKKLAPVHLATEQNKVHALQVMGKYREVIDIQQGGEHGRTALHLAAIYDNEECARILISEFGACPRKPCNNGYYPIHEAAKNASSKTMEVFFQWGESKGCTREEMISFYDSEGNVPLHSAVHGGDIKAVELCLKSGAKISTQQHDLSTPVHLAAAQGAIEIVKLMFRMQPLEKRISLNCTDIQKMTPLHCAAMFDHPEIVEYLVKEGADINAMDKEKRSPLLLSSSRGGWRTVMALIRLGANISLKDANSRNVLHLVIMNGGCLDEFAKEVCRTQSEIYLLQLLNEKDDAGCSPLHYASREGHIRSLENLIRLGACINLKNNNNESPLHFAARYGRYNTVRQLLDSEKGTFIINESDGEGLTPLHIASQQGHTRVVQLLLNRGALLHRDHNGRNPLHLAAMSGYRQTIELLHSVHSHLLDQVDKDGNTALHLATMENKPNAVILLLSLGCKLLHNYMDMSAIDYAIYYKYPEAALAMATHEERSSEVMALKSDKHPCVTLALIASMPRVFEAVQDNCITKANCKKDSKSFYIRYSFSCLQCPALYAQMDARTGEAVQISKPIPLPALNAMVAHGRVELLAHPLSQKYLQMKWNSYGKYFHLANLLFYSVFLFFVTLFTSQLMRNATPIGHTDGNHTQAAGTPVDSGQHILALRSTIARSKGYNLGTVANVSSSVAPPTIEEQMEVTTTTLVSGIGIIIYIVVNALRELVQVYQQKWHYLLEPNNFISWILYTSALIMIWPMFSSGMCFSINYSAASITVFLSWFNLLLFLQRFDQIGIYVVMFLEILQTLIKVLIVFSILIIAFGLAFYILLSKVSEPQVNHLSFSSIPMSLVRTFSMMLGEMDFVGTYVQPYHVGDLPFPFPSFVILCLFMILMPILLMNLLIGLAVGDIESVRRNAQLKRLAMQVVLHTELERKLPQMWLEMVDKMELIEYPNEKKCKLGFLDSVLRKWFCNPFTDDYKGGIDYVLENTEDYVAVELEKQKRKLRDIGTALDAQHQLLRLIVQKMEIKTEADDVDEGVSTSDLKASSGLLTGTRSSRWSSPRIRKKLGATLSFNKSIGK
T2 sequence (O75762 whole entry): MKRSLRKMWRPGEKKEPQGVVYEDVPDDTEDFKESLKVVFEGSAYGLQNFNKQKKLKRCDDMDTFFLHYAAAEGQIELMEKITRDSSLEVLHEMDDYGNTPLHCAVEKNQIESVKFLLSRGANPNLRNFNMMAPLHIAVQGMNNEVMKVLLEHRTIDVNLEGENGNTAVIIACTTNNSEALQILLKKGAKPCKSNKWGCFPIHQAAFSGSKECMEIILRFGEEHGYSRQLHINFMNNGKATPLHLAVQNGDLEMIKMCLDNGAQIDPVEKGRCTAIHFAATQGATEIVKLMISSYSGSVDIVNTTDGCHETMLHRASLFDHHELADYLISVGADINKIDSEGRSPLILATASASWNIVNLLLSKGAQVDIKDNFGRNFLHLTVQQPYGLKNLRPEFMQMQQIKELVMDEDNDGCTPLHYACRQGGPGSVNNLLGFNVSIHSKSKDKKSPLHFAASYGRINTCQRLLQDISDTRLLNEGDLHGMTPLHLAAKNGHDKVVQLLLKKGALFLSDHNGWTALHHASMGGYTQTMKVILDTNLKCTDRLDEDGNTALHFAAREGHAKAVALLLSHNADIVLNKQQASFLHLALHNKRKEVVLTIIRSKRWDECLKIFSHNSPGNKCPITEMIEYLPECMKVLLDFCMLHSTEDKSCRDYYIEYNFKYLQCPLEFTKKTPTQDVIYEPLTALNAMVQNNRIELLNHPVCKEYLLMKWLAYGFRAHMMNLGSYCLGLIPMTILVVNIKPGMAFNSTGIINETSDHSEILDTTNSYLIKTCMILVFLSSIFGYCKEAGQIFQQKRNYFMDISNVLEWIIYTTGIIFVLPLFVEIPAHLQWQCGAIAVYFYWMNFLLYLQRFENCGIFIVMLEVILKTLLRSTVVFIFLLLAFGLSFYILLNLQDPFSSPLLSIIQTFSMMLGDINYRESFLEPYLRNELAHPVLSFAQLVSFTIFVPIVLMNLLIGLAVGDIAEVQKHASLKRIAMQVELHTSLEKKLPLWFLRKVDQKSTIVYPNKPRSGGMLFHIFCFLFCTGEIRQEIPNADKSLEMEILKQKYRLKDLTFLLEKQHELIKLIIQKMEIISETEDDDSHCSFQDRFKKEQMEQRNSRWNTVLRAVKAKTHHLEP

Molecule `O[C@@H](CS)[C@@H](O)CS` (racemic) [DTT, dithiothreitol] registered an EC50 on agTRPA1(A) of approximately 3.8 µM. Besides, the “DTT current response” value on Drosophila TRPA1(B) (Xenopus oocytes) is given as “little compared to that of TRPA1(A)”; at human TRPA1 (humTRPA1) it was “seldom showed electrophysiological responses to DTT”. Also, the “effect of pre-application on UV-evoked action potentials” value (“effect of pre-application” for short) in [1] was “lowered the frequencies of UV-evoked action potentials”. Moreover, the “DTT responsiveness” value in the assay with TRPA1(A)R113A/R116A and in the assay with TRPA1(A)C105A was “indistinguishable from that of TRPA1(B)” each time.

As for `N.N.O=S(=O)(O)OOS(=O)(=O)O` [APS, ammonium persulfate], the “channel activation” value is “not agTRPA1(B)” in the assay with agTRPA1(B); “activated agTPRA1(A)” at agTRPA1(A) (0.1 mM APS, mixture 0.01 mM TEMED and 0.1 mM APS, from 30 min after mixing).

For the molecule `S=C=NCc1ccccc1` [BITC, benzyl isothiocyanate], the “effect of pre-application” value in assay [1] is given as “lowered the frequencies of UV-evoked action potentials”.

For `N#CSCc1ccccc1` [BTC, benzyl thiocyanate], at agTRPA1(A) (Xenopus oocytes), the “isoform preference of activation” value is “preferentially activated agTRPA1(A) over agTRPA1(B)”. Besides, the “effect of pre-application” value in assay [1] was “lowered the frequencies of UV-evoked action potentials”.

`OO` [H2O2, hydrogen peroxide]: the concentration for a half-maximal effect (EC50) in the assay on mouse TRPA1 is approximately 230 µM; on agTRPA1(A) it was 1.7 ± 0.3 µM; on Drosophila TRPA1(A), 5 ± 0.8 µM; at Drosophila TRPA1(B), 900 ± 200 µM. Also, the “NMM-normalized peak current amplitude relative to Drosophila TRPA1(A)” value at agTRPA1(A) (Xenopus oocytes) was ~ 5 times. Further, the “lowest concentration that readily activates the channel” value at Drosophila TRPA1(A) (Xenopus oocytes, 'as low as') came to 100 nM. Moreover, the Emax at Drosophila TRPA1(A) (read-out: average maximal current amplitude relative to NMM responses) was approximately 30%. Also, the “H2O2 current response” value at human TRPA1 (humTRPA1), with TRPA1(A)R113A/R116A and with TRPA1(A)C105A was “remarkably reduced responses to H2O2” throughout. Also, in assay [1] (100 mM H2O2, required the TrpA1 gene), the “spiking response of bitter-sensing neurons” value was “robust spiking response”. The “feeding avoidance” value with Drosophila (WT: wcs) is on record as “increasingly avoided ingestion of H2O2-containing food”.

In the case of `CN1C(=O)C=CC1=O` [NMM, N-methyl maleimide], the “effect on the stimulatory effect of APS/TEMED co-incubation” value on agTRPA1(A) (NMM at 0.01 mM) is reported as “abolished”. Further, the “reversal potential of evoked current” value at Drosophila TRPA1(A) (Xenopus oocytes, n = 7) is recorded as −5.4 ± 1.0 mV. Moreover, the “rectification: ratio of conductance at +60 mV to that at −60 mV” value at Drosophila TRPA1(A) (net response, Xenopus oocytes, n = 4) is 1.7 ± 0.3. Further, the “effect of pre-application” value in [1] is on record as “lowered the frequencies of UV-evoked action potentials”. Also, the “feeding avoidance” value with Drosophila (WT: wcs) is “showed NMM-dependent feeding avoidance”.

On to `c1c[nH]cn1` [imidazole], for which the “isoform preference of activation” value on agTRPA1(A) (Xenopus oocytes) is recorded as “preferentially activated agTRPA1(A) over agTRPA1(B)”.

These data come from publication PMC5068967, “Nucleophile sensitivity of Drosophila TRPA1 underlies light-induced feeding deterrence” (eLife, 2016).
